Assay results as given in US20240360122A1, “POLYMORPHIC FORMS AND SALTS OF A GLP-1R AGONIST” (Terns (Suzhou) Biotechnology Co., Ltd., priority 2023, published 2024).

Columns and labels:
Assay type in all cases: physicochemical
[1] = Hygroscopicity by DVS at 25° C.
Method: DVS was measured via a SMS (Surface Measurement Systems) DVS Intrinsic. The relative humidity at 25° C. were calibrated against deliquescence point of LiCl, Mg(NO3)2 and KCl.

[2] = Kinetic solubility in water and bio-relevant media (SGF, FaSSIF, FeSSIF) at 37° C.; conditions: for FC: Form change: residual solids by XRPD
Method: Add 4 mL of medium (H2O, SGF, FaSSIF and FeSSIF). • Rolled at 37° C. (˜25 rpm). Sampling at 1, 2, 4 and 24 hrs. • At each time-point, sampled 0.8 mL of solution or suspension into a centrifuge tube prior to centrifugation (12000 rpm, 37° C., 5 min) and filtration through 0.45 μm PTFE membrane. • Tested pH and concentration for the filtrate. Analyze residual solids by XRPD.
0.1 g of NaCl and 0.05 g of Triton X-100 were weighed into a 50-mL volumetric flask. Purified water was added to dissolve the solid. 67.5 μL HCl (38%, 12M) was added after the solid was dissolved completely. pH was then adjusted to 1.8 using HCl (1 M) or NaOH (1 M). Purified water was added to the volume.
(§1) 0.17 g of anhydrous NaH2PO4, 0.021 g of NaOH and 0.31 g of NaCl were weighed into a 50-mL volumetric flask. ˜48 mL purified water was added to dissolve the solid. pH was adjusted to 6.5 using 1M HCl or 1M NaOH. Purified water was then added to the volume. 0.11 g of SIF powder was added into the volumetric flask.
as §1, with “0.41 mL” for “0.17 g”, “acetic acid, 0.20” for “anhydrous NaH2PO4, 0.021”, “0.59” for “0.31”, “5.0” for “6.5”, “0.56” for “0.11”

[3] = Solid state stability at 25° C./60% RH and 40° C./75% RH for 1 week; conditions: for HPLC peak Area, RRT 1.00: main peak
Method: Each sample was added into a glass vial, sealed by parafilm with several holes, and kept under tested conditions. After one week, samples were taken for XRPD and HPLC purity test.

In the case of `N#Cc1ccc(COc2cccc(C3CCN(Cc4nc5ccc(C(=O)O)cc5n4Cc4cncs4)CC3)n2)c(F)c1` [Fumarate Type A], the “water uptake (DVS)” value ([1]; 25° C./80% RH) is reported as 0.12%, the hygroscopicity ([1]; DVS, 25° C.) is reported as “non-hygroscopic” and the “Water uptake at 25° C./80% RH” value ([1]; DVS, 25° C./80% RH) is reported as 0.12 wt %. For the same molecule, the “For change after DVS” value ([1]; XRPD after DVS test) was “No”, the “form change after DVS test (XRPD)” value ([1]; after DVS test) was “no form change” and the “FC: Form change” value ([2]; FaSSIF, 37° C., 1 hr) was “No”. The “FC: Form change” value ([2]; FaSSIF, 37° C., 2 hrs) was “No”, the “FC: Form change” value ([2]; FaSSIF, 37° C., 4 hrs) was “No” and the “FC: Form change” value ([2]; FaSSIF, 37° C., 24 hrs) was “No”. For the same molecule, the “FC: Form change” value ([2]; FeSSIF, 37° C., 1 hr) was “No”, the “FC: Form change” value ([2]; FeSSIF, 37° C., 2 hrs) was “No” and the “FC: Form change” value ([2]; FeSSIF, 37° C., 4 hrs) was “No”. For the same molecule, the “FC: Form change” value ([2]; FeSSIF, 37° C., 24 hrs) was “No”, the “FC: Form change” value ([2]; H2O, 37° C., 1 hr) was “No” and the “FC: Form change” value ([2]; H2O, 37° C., 2 hrs) was “No”. For the same molecule, the “FC: Form change” value ([2]; H2O, 37° C., 4 hrs) was “No”, the “FC: Form change” value ([2]; H2O, 37° C., 24 hrs) was “No” and the “FC: Form change” value ([2]; SGF, 37° C., 1 hr) was “No”. For the same molecule, the “FC: Form change” value ([2]; SGF, 37° C., 2 hrs) was “No”, the “FC: Form change” value ([2]; SGF, 37° C., 4 hrs) was “No” and the “FC: Form change” value ([2]; SGF, 37° C., 24 hrs) was “No”. The “form change of residual solids (XRPD) after solubility test” value ([2]; all the media (H2O, SGF, FaSSIF, FeSSIF), after 24 hrs) was “No form change”, the “solubility compared with the other selected salts” value ([2]; all the media, 37° C.) was “lowest solubility” and the “HPLC peak Area, RRT 0.73” value ([3]; 25° C./60% RH, 1 week) was 0.14%. For the same molecule, the “HPLC peak Area, RRT 0.80” value ([3]; 25° C./60% RH, 1 week) was 0.05%, the “HPLC peak Area, RRT 0.83” value ([3]; 25° C./60% RH, 1 week) was 1.98% and the “HPLC peak Area, RRT 0.90” value ([3]; 25° C./60% RH, 1 week) was 0.10%. For the same molecule, the “HPLC peak Area, RRT 0.99” value ([3]; 25° C./60% RH, 1 week) was 0.06%, the “HPLC peak Area, RRT 1.05” value ([3]; 25° C./60% RH, 1 week) was 0.28% and the “HPLC peak Area, RRT 1.10” value ([3]; 25° C./60% RH, 1 week) was 0.89%. For the same molecule, the “HPLC peak Area, RRT 1.12” value ([3]; 25° C./60% RH, 1 week) was 0.06%, the “HPLC peak Area, RRT 1.15” value ([3]; 25° C./60% RH, 1 week) was 0.25% and the “HPLC peak Area, RRT 1.34” value ([3]; 25° C./60% RH, 1 week) was 0.07%. The “HPLC peak Area, RRT 1.00” value ([3]; 25° C./60% RH, 1 week) was 96.13%, the Form change ([3]; 25° C./60% RH/Open/1 week) was “No” and the Purity ([3]; 25° C./60% RH/Open/1 week) was 96.13 Area %. For the same molecule, the “solid-state stability: form change and purity decrease” value ([3]; 25° C./60% RH/open and 40° C./75% RH/open, 1 week) was “no form change or significant purity decrease”, the “HPLC peak Area, RRT 0.73” value ([3]; 40° C./75% RH, 1 week) was 0.13% and the “HPLC peak Area, RRT 0.80” value ([3]; 40° C./75% RH, 1 week) was less than 0.05%. For the same molecule, the “HPLC peak Area, RRT 0.83” value ([3]; 40° C./75% RH, 1 week) was 1.89%, the “HPLC peak Area, RRT 0.90” value ([3]; 40° C./75% RH, 1 week) was 0.09% and the “HPLC peak Area, RRT 0.99” value ([3]; 40° C./75% RH, 1 week) was less than 0.05%. The “HPLC peak Area, RRT 1.05” value ([3]; 40° C./75% RH, 1 week) was 0.29%, the “HPLC peak Area, RRT 1.10” value ([3]; 40° C./75% RH, 1 week) was 0.87% and the “HPLC peak Area, RRT 1.12” value ([3]; 40° C./75% RH, 1 week) was 0.05%. For the same molecule, the “HPLC peak Area, RRT 1.15” value ([3]; 40° C./75% RH, 1 week) was 0.26%, the “HPLC peak Area, RRT 1.34” value ([3]; 40° C./75% RH, 1 week) was 0.06% and the “HPLC peak Area, RRT 1.00” value ([3]; 40° C./75% RH, 1 week) was 96.37%. For the same molecule, the Form change ([3]; 40° C./75% RH/Open/1 week) was “No”, the Purity ([3]; 40° C./75% RH/Open/1 week) was 96.37 Area % and the “HPLC peak Area, RRT 0.73” value ([3]; Initial) was 0.13%. For the same molecule, the “HPLC peak Area, RRT 0.80” value ([3]; Initial) was less than 0.05%, the “HPLC peak Area, RRT 0.83” value ([3]; Initial) was 1.91% and the “HPLC peak Area, RRT 0.90” value ([3]; Initial) was 0.09%. The “HPLC peak Area, RRT 0.99” value ([3]; Initial) was less than 0.05%, the “HPLC peak Area, RRT 1.05” value ([3]; Initial) was 0.27% and the “HPLC peak Area, RRT 1.10” value ([3]; Initial) was 0.87%. For the same molecule, the “HPLC peak Area, RRT 1.12” value ([3]; Initial) was 0.05%, the “HPLC peak Area, RRT 1.15” value ([3]; Initial) was 0.24% and the “HPLC peak Area, RRT 1.34” value ([3]; Initial) was 0.06%. For the same molecule, the Purity ([3]; Initial) was 96.37 Area % and the “HPLC peak Area, RRT 1.00” value ([3]; Initial) was 96.37%.
